Source: US11505537B2, “Compositions comprising methylphenidate-prodrugs, processes of making and using the same” (KemPharm, Inc., priority 2016, dated 2022)
Where a name gives a salt, the structure may show the parent alone. Read-outs that look alike come from different tables or passages of the source.

Assays:
[1] = Oral PK in rats of d- and l-isomers (unconjugated MPH, L-Ser and L-Thr conjugates) at equimolar doses; details: for d:l Ratio Tmax / d:l Ratio AUC / d:l Ratio Cmax: d-isomer vs l-isomer; for d:l Ratio AUC: mean AUC; for d:l Ratio Cmax: mean Cmax; for Cmax: equimolar doses
Experimental: In another embodiment, the following compounds were dosed orally in rats at equimolar doses: d-MPH.HCl, l-MPH.HCl, d-MPH-CO2CH2-nicotinoyl-L-Ser, l-MPH-CO2CH2-nicotinoyl-L-Ser, d-MPH-CO2CH2-nicotinoyl-L-Thr, and l-MPH-CO2CH2-nicotinoyl-L-Thr.

[2] = Human single- and multiple-dose PK of d-MPH HCl/conjugate dose mixtures vs Concerta 54 mg, once daily for 7 days, fasted; format: in vivo
Source text: Forty-eight (48) healthy volunteers (12 per treatment arm) were enrolled in this open-label, single- and multiple-dose, four-treatment, one-period parallel PK trial.
Eligible subjects included healthy male and female volunteers between the age of 18 and 55 years with a body mass index (BMI) between 18 and 32 kg/m^2 and a body weight between 60 and 100 kg at screening. The primary objective of the study was to assess the single and multiple dose pharmacokinetics of d-MPH-CO2CH2-nicotinoyl-L-Ser and d-methylphenidate following multiple doses of different combinations of d-methylphenidate HCl/d-MPH-CO2CH2-nicotinoyl-L-Ser Chloride administered orally once per day for 7 days in healthy volunteers under fasted conditions, compared to the same dosing regimen with a Concerta® tablet. After the 1st dose of study drug (Day 1), blood samples for PK were collected at pre-dose (0 hour; within 1 hour prior to dosing), and at 0.5, 1, 1.5, 2, 2.5, 3, 4.5, 6, 7, 7.5, 8, 8.5, 9, 10, 12, 13, and 24 hours±5 minutes post-dose. The 24-hr post-dose blood sample was taken before administration of the 2nd dose of study drug. After the 2nd, 3rd, 4th, 5th and 6th dose of study drug (Days 2-6), blood samples were collected at pre-dose (within 10 minutes prior to dosing), and at 1.5 and 8 hours±5 minutes post-dose. The pre-dose sample on Day 2 was the same as the 24-hour post-dose sample after the 1st dose. After the last dose (7th dose) of study drug (Day 7), blood samples for PK were collected at pre-dose (within 10 minutes prior to dosing), and at 0.5, 1, 1.5, 2, 2.5, 3, 4.5, 6, 7, 7.5, 8, 8.5, 9, 10, 12, 13, 24, 36, 48, 60 and 72 hours±5 minutes post-dose.

[3] = Human single-dose PK of 60 mg d-MPH-CO2CH2-nicotinoyl-L-Ser chloride capsules, fasted and fed; format: in vivo; details: for AUC(0-inf) / half-life / AUC(0-t) / Tmax / Cmax: both sexes, plasma, analyte d-MPH-CO2CH2-nicotinoyl-L-Ser; for Tmax: read-out: Tmax (median)
Experimental: A human study was conducted to evaluate the pharmacokinetics of d-MPH-CO2CH2-nicotinoyl-L-Ser and d-methylphenidate after oral administration of 60 mg d-MPH-CO2CH2-nicotinoyl-L-Ser chloride gelatin capsules in healthy volunteers under fasted and fed conditions. Fourteen (14) subjects were enrolled in this phase 1, open-label, single dose, two-period, randomized, crossover study. Eligible subjects included healthy male and female volunteers between the age of 18 and 55 years with a body mass index (BMI) between 18 and 32 kg/m^2 and a body weight between 50 and 100 kg at screening.
Two single-dose treatments were administered with a minimum 96-hour washout period between doses. Blood samples for pharmacokinetics were collected pre-dose and at 0.5, 0.75, 1, 1.5, 2, 2.5, 3, 3.5, 4.5, 6, 8, 10, 12, 16, 24, and 36 hours±5 minutes post-dose, in each treatment period.

[4] = Human single-dose PK of 32 mg d-MPH-CO2CH2-nicotinoyl-L-Ser oral liquid, fasted; details: single 32 mg oral liquid
Source text: Twenty-four (24) healthy volunteers were enrolled in this open-label, single-dose, two-treatment, two-period PK trial.

[5] = Oral PK in rats, conjugate vs unconjugated d-methylphenidate (LC-MS/MS); format: in vivo; details: analyte d-methylphenidate, […] d-MPH content, hydrochloride
Experimental: (§1) The plasma concentrations of d-methylphenidate were measured by LC-MS/MS over time. The oral plasma concentrations of d-methylphenidate released from d-threo-MPH-CO2CH2-nicotinoyl-L-Ser were compared with unconjugated d-methylphenidate after oral administration in rats.
The human equivalent dose for the conjugate was 0.8 mg/kg as compared to 0.4 mg/kg for unconjugated d-methylphenidate.

[6] = Intranasal PK in rats, conjugate vs unconjugated d-methylphenidate; format: in vivo; details: analyte d-methylphenidate
Experimental: as §1
As shown in FIG. 5 and Table 10, after 4.75 mg conjugate was intranasally administered to rats, plasma concentrations of d-methylphenidate released from the conjugate are substantially flat from about 0 to about 1 hour following intranasal administration in a rat. […] Conjugated d-methylphenidate was about 6% AUC and 5% Cmax of unconjugated d-methylphenidate.

[7] = Intravenous PK in rats, conjugate vs unconjugated d-methylphenidate; format: in vivo; details: analyte d-methylphenidate
[8] = Solubility in IPA/IPAc inferred from recrystallization; format: physicochemical; details: isopropylalcohol/isopropylacetate, from recrystallization yields
Source text: In one embodiment, the conjugate d/l-MPH-CO2CH2-nicotinoyl-L-Ser was recrystallized from a mixture (1:1) of isopropylalcohol (IPA) and isopropylacetate (IPAc) yielding approximately 45.2% of product (purity of about 98% by HPLC). A similar amount of d-MPH-CO2CH2-nicotinoyl-L-Ser recrystallized from IPA and IPAc (2:1) yielded approximately 81.5% of product (purity of about 97.6% by HPLC).

Which results are given for `COC(=O)C(c1ccccc1)C1CCCCN1C(=O)OC[n+]1cccc(C(=O)N[C@@H](CO)C(=O)[O-])c1` (stereo partly drawn) [MPH-CO2CH2-nicotinoyl-L-Ser]?
d:l Ratio Tmax [1]: 182%; d:l Ratio AUC [1]: 73%; d:l Ratio Cmax [1]: 94%

Which “d:l Ratio Tmax” value [1] does the source give for `COC(=O)C(c1ccccc1)C1CCCCN1C(=O)OC[n+]1cccc(C(=O)N[C@H](C(=O)[O-])[C@@H](C)O)c1` (stereo partly drawn) [MPH-CO2CH2-nicotinoyl-L-Thr] here?
The value was 57%.

And the “d:l Ratio AUC” value [1]?
Its value is 53%.

And the “d:l Ratio Cmax” value [1]?
Its value is 58%.

Which results are given for `COC(=O)[C@H](c1ccccc1)[C@H]1CCCCN1C(=O)OC[n+]1cccc(C(=O)N[C@@H](CO)C(=O)O)c1.[Cl-]` [d-MPH-CO2CH2-nicotinoyl-L-Ser chloride, 3-((S)-1-carboxy-2-hydroxyethylcarbamoyl)-1-(((R)-2-(2-(R)-methoxy-2-oxo-1-phenylethyl)piperidine-1-carbonyloxy)methyl)pyridium chloride]?
concentration at 24 h ([2]; both sexes, human, plasma, oral dose mixtures, adult humans, FIGS. 14-25, read-out: Plasma concentration of intact d-MPH-CO2CH2-nicotinoyl-L-Ser chloride at 24 hours post dose): < 0.001 µg/mL; Accumulation of intact d-MPH-CO2CH2-nicotinoyl-L-Ser chloride in the bloodstream after the 7th dose ([2]; dose 1 vs dose 7 plasma concentrations at 24 hours): negligible; Time until which plasma concentrations of intact d-MPH-CO2CH2-nicotinoyl-L-Ser chloride increased ([2]; oral dose mixtures, adult humans, FIGS. 14-25): about 2 hours; peak d-MPH exposure in the fed state vs fasted ([3]; analyte d-MPH, single oral 60 mg): slightly higher; AUC(0-inf) ([3]; human, oral, 60 mg, Fasted): 0.309 µg·h/mL; half-life ([3]; human, oral, 60 mg, Fasted): 350 min; AUC(0-t) ([3]; human, oral, 60 mg, Fasted, read-out: AUC0-24 hr): 0.299 µg·h/mL; AUC(0-t) ([3]; human, oral, 60 mg, Fasted, read-out: AUC0-last): 0.306 µg·h/mL; Tmax ([3]; human, oral, 60 mg, Fasted): 30 min; AUC(0-inf) ([3]; human, oral, 60 mg, Fed): 0.0842 µg·h/mL; Cmax ([3]; human, oral, 60 mg, Fed): 0.0102 µg/mL; half-life ([3]; human, oral, 60 mg, Fed): 366 min; AUC(0-t) ([3]; human, oral, 60 mg, Fed, read-out: AUC0-24 hr): 0.0779 µg·h/mL; AUC(0-t) ([3]; human, oral, 60 mg, Fed, read-out: AUC0-last): 0.0811 µg·h/mL; Tmax ([3]; human, oral, 60 mg, Fed): 180 min; Cmax ([3]; Fasted, single oral 60 mg, human adults): 0.0756 µg/mL

With `COC(=O)[C@H](c1ccccc1)[C@H]1CCCCN1C(=O)OC[n+]1cccc(C(=O)N[C@@H](CO)C(=O)O)c1` [d-MPH-CO2CH2-nicotinoyl-L-Ser, d-methylphenidate-CO2CH2-nicotinoyl-L-Ser] as the compound, how does the “Plasma concentration of intact prodrug at 24 hours post dose” value [4] read?
The value was “about 0”.

And the “Time until which plasma concentrations of intact prodrug increased” value ([4]; N=24)?
The value was “about 2 hours”.

Which results are given for `COC(=O)[C@H](c1ccccc1)[C@H]1CCCCN1C(=O)OC[n+]1cccc(C(=O)N[C@H](C(=O)O)[C@@H](C)O)c1.[Cl-]` [d-MPH-CO2CH2-nicotinoyl-L-Thr, 3-(((1S,2R)-1-carboxy-2-hydroxypropyl)carbamoyl)-1-(((R)-2-(2-(R)-methoxy-2-oxo-1-phenylethyl)piperidine-1-carbonyloxy)methyl)pyridium chloride]?
d:l Ratio AUC [1]: ~53%; d:l Ratio Cmax [1]: about 58%

What does the source list for `COC(=O)[C@H](c1ccccc1)[C@H]1CCCCN1.Cl` [d-MPH•HCl, (2R,2′R)-(+)-Methylphenidate hydrochloride]?
Tmax [5]: 24 min; Tmax ([5]; listed as unconjugated d-methylphenidate): about 0.4 h; AUC0-1 h [6]: 1.1108 µg·h/mL; Cmax [6]: 2.5616 µg/mL; Tmax [6]: 6 min; AUC ([1]; analyte d-MPH): 0.1192 µg·h/mL; Tmax ([1]; analyte d-MPH): 24 min; Cmax ([1]; analyte d-MPH): 0.0989 µg/mL; d:l Ratio AUC [1]: ~124%; d:l Ratio Cmax [1]: about 192%; AUC0-1 h [7]: 0.3126 µg·h/mL; AUC0-2 h [7]: 0.5349 µg·h/mL; Cmax [7]: 0.5418 µg/mL; Tmax [7]: 24 min

With `COC(=O)[C@@H](c1ccccc1)[C@@H]1CCCCN1C(=O)OC[n+]1cccc(C(=O)N[C@@H](CO)C(=O)[O-])c1` [l-MPH-CO2CH2-nicotinoyl-L-Ser] as the compound, how does the “solubility in IPA/IPAc compared to d-MPH-CO2CH2-nicotinoyl-L-Ser” value [8] read?
Its value is “significantly higher”.

With `COC(=O)[C@@H](c1ccccc1)[C@@H]1CCCCN1` [l-MPH•HCl] as the compound, how does the AUC ([1]; analyte l-MPH) read?
Its AUC is 0.0964 µg·h/mL.

What about the Tmax ([1]; analyte l-MPH) of the same compound?
The Tmax was 42 min.

And the Cmax ([1]; analyte l-MPH)?
The Cmax was 0.0515 µg/mL.

Which “d:l Ratio Tmax” value [1] does the source give for `COC(=O)C(c1ccccc1)C1CCCCN1` (stereo not drawn) [unconjugated MPH, methyl 2-phenyl-2-(piperidin-2-yl)acetate] here?
The value was 62%.
